Results on 14 molecules are retold here after patent EP3722296B1, “DIHYDRONAPHTHYRIDINES AND RELATED COMPOUNDS USEFUL AS KINASE INHIBITORS FOR THE TREATMENT OF PROLIFERATIVE DISEASES” (Deciphera Pharmaceuticals, LLC, priority 2012, dated 2013).

In assay [1] the target is T1, c-KIT VVDV kinase (Homo sapiens, UniProt P10721, D816V/DEL559-560).
T1 construct: This construct contains residues T544-V976 of cKit; GST (N); TEV cleavage site (internal); purchased deCODE Biostructures
Briefly: cKIT-VVDV kinase Assay. The class given is biochemical. The settings on record: enzymatic assay; V559+V560 deletions and D816V mutation. The protocol: In this assay, the oxidation of NADH (measured by decrease in absorbance at 340 nm) was continuously monitored spectrophotometrically. […] The inhibition reaction was started by mixing serial diluted test compound with the above reaction mixture. The absorption at 340 nm was monitored continuously for 5 hours at 30 °C on Synergy 2 plate reader (BioTech). […] The protein construct was prepared by deCODE Biostructures using procedures known in the art. […] This construct is identical to Seq ID no.

The target of assay [2] is T2, c-KIT T670I kinase (Homo sapiens, UniProt P10721, T670I).
T2 construct: The construct contains residues T544-V976 of cKit; GST (N); TEV cleavage site (internal); purchased deCODE Biostructures
T2 sequence (P10721 544-976 T670I): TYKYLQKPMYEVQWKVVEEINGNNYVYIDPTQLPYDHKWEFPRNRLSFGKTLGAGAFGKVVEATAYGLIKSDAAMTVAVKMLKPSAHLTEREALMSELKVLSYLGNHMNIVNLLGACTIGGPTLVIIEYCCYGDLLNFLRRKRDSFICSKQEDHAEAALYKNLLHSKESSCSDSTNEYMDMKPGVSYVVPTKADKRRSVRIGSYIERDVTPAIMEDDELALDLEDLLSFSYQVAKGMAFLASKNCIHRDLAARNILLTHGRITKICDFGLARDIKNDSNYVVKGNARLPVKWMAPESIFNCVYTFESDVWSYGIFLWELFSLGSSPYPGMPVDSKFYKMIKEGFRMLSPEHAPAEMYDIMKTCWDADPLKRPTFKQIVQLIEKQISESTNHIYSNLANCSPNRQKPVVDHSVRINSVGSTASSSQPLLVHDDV
Briefly: c-KIT T670I kinase assay. To be noted: enzymatic assay. The class given is biochemical. In a few lines: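 Enzyme: GST-fused, N-terminally tagged cKit bearing T670I, with TEV cleavage site. Reaction started by mixing compound dilutions with reaction mix; activity read continuously over 5 h at 30 °C as loss of 340 nm absorbance from NADH consumption.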

For assay [3], the target named is T3, c-KIT D816V kinase (Homo sapiens, UniProt P10721, D816V).
T3 construct: residues T544-V976 with N-terminal GST fusion; purchased deCODE Biostructures
T3 sequence (P10721 544-976 D816V): as the sequence (P10721 544-976 T670I) above, with I127T, D273V counted along it
Briefly: c-KIT D816V kinase Assay. To be noted: enzymatic assay, ATP 200 uM. Format: biochemical. In a few lines:
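Coupled assay in which NADH oxidation was tracked as decreasing absorbance at 340 nm, continuously for 5 hours at 30 °C after adding serially diluted compound. Enzyme: cKit residues T544-V976 with N-terminal tag, GST fusion and TEV cleavage site.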

Assay [4] addresses c-KIT kinase (Homo sapiens, UniProt P10721). Briefly: c-KIT kinase Assay. Format: biochemical. Also noted: cKIT residues T544-V976; GST (N); TEV cleavage site (internal); purchased deCODE Biostructures. To be noted: enzymatic assay, ATP 200 µM; read-out: KIT (wt) IC50. In a few lines: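 This continuous spectrophotometric assay tracked c-KIT kinase turnover through NADH consumption at 340 nm, recorded for 2 hours at 30 °C. The enzyme construct from deCODE Biostructures carried an N-terminal tag, a GST-fusion sequence and a TEV cleavage site. Percent inhibition came from reaction rates over 0 to 1 h relative to a no-compound control, and IC50 values were derived with GraphPad Prism.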

Assay [5] addresses T4, c-KIT V654A kinase (Homo sapiens, UniProt P10721, V654A).
T4 construct: residues T544-V976 with N-terminal GST fusion; purchased deCODE Biostructures
The assay can be described thus: c-KIT V654A Kinase Assay. The class given is biochemical. The settings on record: enzymatic assay, ATP 200 µM. Put shortly:
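Kinase activity tracked by coupled NADH consumption, monitored continuously at 340 nm over 6 h at 30 °C after serially diluted compound was mixed in to start inhibition. Enzyme used was a GST-fused, N-terminally tagged cKIT T544–V976 construct with a TEV cleavage site.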

Assay [6] deals with T5, c-KIT D816H kinase (Homo sapiens, UniProt P10721, D816H).
T5 construct: The construct contains residues T544-V976 of cKit; GST (N); TEV cleavage site (internal); purchased deCODE Biostructures
T5 sequence (P10721 544-976 D816H): as the sequence (P10721 544-976 T670I) above, with I127T, D273H counted along it
Briefly: c-KIT D816H Kinase Assay. Format: biochemical. To be noted: enzymatic assay, ATP 200 µM. In a few lines: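 Mutant cKit enzyme, expressed as a GST-fusion construct carrying an N-terminal tag and TEV site, was mixed with serially diluted compound to start reactions. Activity tracked via NADH consumption, read continuously at 340 nm over 6 hours at 30 °C.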

For assay [7], the system named is Phospho-KIT (Tyr719). Briefly: GIST430 KIT Western Blot. The class given is cell-based. The settings on record: GIST430 cells, 4 hours, serum-free medium; read-out: pKIT suppression by western blot analysi GIST430. How it is done: (§1) GIST48, GIST430, and GIST882 cells were obtained from J. Fletcher (Brigham and Women's Hospital, Boston, MA). GIST T1 cells were obtained from B. Rubin (Cleveland Clinic, Cleveland, OH) and Professor Takahiro Taguchi (Kochi Medical School, Nankoku, Kochi, Japan). […] GIST430 cells were grown in Ham's F10 medium supplemented with 15% characterized fetal bovine serum (Invitrogen, Carlsbad, CA), 30 mg/L bovine pituitary extract (BD Biosciences, San Jose, CA), 0.5% Mito+ serum extender (BD Biosciences, San Jose, CA), 1 unit/mL penicillin G, 1 µg/ml streptomycin, and 0.29 mg/mL L-glutamine at 37 °C, 5%CO2, 95% humidity. GIST T1 cells were grown in DMEM medium supplemented with 10% characterized fetal bovine serum (Invitrogen, Carlsbad, CA), 1 unit/mL penicillin G, 1 µg/ml streptomycin, and 0.29 mg/mL L-glutamine at 37 °C, 5% CO2, and 95% humidity.
(§2) One hundred fifty thousand cells were added per well in a 24-well tissue-culture treated plate. […] Medium was aspirated, cells were washed with PBS, and serum-free Ham's F10 medium was added. […] Cells were washed with PBS, then lysed. Cell lysates were separated by SDS-PAGE and transferred to PVDF. Phospho-KIT (Tyr719) was detected using an antibody from Cell Signaling Technology (Beverly, MA), ECL Plus detection reagent (GE Healthcare, Piscataway, NJ) and a Molecular Devices Storm 840 phosphorimager in fluorescence mode. Blots were stripped and probed for total KIT using an antibody from Santa Cruz Biotech (Santa Cruz, CA). IC50 values were calculated using Prism software (Graphpad, San Diego, CA).
For orientation: In western blotting, separated proteins are transferred to a membrane and probed.

Assay [8] concerns Phospho-KIT (Tyr719). The assay can be described thus: GIST48 KIT Western Blot. Format: cell-based. The settings on record: GIST48 cells, 4 hours, serum-free medium; read-out: pKIT suppression by western blot analysi GIST48. How it is done:
as §1
as §2, with “Two” for “One”, “RPMI1640” for “Ham's F10”

Chain of c-KIT kinase (P10721 544-976): as the sequence (P10721 544-976 T670I) above, with I127T counted along it
T1 sequence (P10721 with tags, fused parts or gaps DEL559-560/D816V): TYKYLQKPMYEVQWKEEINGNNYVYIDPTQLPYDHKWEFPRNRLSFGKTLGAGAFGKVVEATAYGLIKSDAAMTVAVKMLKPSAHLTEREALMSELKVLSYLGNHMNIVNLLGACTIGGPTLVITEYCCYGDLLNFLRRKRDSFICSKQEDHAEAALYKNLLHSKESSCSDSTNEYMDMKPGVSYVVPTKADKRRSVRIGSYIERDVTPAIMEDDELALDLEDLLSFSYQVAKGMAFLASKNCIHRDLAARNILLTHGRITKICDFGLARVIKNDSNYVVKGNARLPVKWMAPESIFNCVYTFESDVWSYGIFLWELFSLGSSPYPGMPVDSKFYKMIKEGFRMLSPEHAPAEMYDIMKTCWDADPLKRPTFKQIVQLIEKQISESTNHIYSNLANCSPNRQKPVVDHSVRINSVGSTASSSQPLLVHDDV
T4 sequence (P10721 544-976 V654A): as the sequence (P10721 544-976 T670I) above, with V111A, I127T counted along it

As for `CCn1c(=O)c(-c2ccc(F)c(NC(=O)Nc3cccc4ccccc34)c2)cc2cnc(NC)cc21` [Example 2, 1-(5-(1-ethyl-7-(methylamino)-2-oxo-1,2-dihydro-1,6-naphthyridin-3-yl)-2-fluorophenyl)-3-(naphthalen-1-yl)urea], the IC50 in assay [1] was 100 to 1000 nM; in assay [2], less than 10 nM; in assay [3] it was 100 to 1000 nM.
As to `CNc1cc2c(cn1)cc(-c1ccc(F)c(NC(=O)Nc3ccccc3)c1)c(=O)n2C(C)C` [Example 5, 1-(2-fluoro-5-(1-isopropyl-7-(methylamino)-2-oxo-1,2-dihydro-1,6-naphthyridin-3-yl)phenyl)-3-phenylurea], the IC50 in assay [1] and in assay [3] was 100 to 1000 nM in each case.
Take `CNc1cc2c(cn1)cc(-c1cc(NC(=O)Nc3ccccc3)c(F)cc1Cl)c(=O)n2C` [Example 7, 1-(4-chloro-2-fluoro-5-(1-methyl-7-(methylamino)-2-oxo-1,2-dihydro-1,6-naphthyridin-3-yl)phenyl)-3-phenylurea]: the IC50 in assay [1], in assay [2] and in assay [3] was 10 to 100 nM in each case.
Turning to `CNc1cc2c(cn1)cc(-c1cc(NC(=O)Nc3cccc4ccccc34)c(F)cc1Cl)c(=O)n2C` [Example 8, 1-(4-chloro-2-fluoro-5-(1-methyl-7-(methylamino)-2-oxo-1,2-dihydro-1,6-naphthyridin-3-yl)phenyl)-3-(naphthalen-1-yl)urea], the results for the IC50 in assay [1], in assay [2] and in assay [3] were 100 to 1000 nM, 10 to 100 nM and 10 to 100 nM, respectively.
Take `CNc1cc2c(cn1)cc(-c1cc(NC(=O)Nc3cccc(C#N)c3)c(F)cc1Cl)c(=O)n2C` [Example 9, 1-(4-chloro-2-fluoro-5-(1-methyl-7-(methylamino)-2-oxo-1,2-dihydro-1,6-naphthyridin-3-yl)phenyl)-3-(3-cyanophenyl)urea]: the IC50 in assay [1] is 10 to 100 nM; in assay [2] it was 10 to 100 nM; in assay [4], less than 10 nM; in assay [3], 10 to 100 nM.
In the case of `CNc1cc2c(cn1)cc(-c1cc(NC(=O)Nc3cccc(F)c3F)c(F)cc1Cl)c(=O)n2C` [Example 10, 1-(4-chloro-2-fluoro-5-(1-methyl-7-(methylamino)-2-oxo-1,2-dihydro-1,6-naphthyridin-3-yl)phenyl)-3-(2,3-difluorophenyl)urea], the IC50 in assay [1], in assay [2] and in assay [3] was 10 to 100 nM each time.
Take `CCn1c(=O)c(-c2ccc(F)c(NC(=O)Nc3cccc(C#N)c3)c2)cc2cnc(NC)cc21` [Example 12, 1-(3-cyanophenyl)-3-(5-(1-ethyl-7-(methylamino)-2-oxo-1,2-dihydro-1,6-naphthyridin-3-yl)-2-fluorophenyl)urea]: the IC50 in assay [1] was 100 to 1000 nM; in assay [3], more than 1000 nM.
`CNc1cc2c(cn1)cc(-c1cc(NC(=O)Nc3csc4ccccc34)c(F)cc1C)c(=O)n2C` [Example 13, 1-(benzo[b]thiophen-3-yl)-3-(2-fluoro-4-methyl-5-(1-methyl-7-(methylamino)-2-oxo-1,2-dihydro-1,6-naphthyridin-3-yl)phenyl)urea]: the IC50 in assay [1] is less than 10 nM; in assay [2], 10 to 100 nM; in assay [3] it was 10 to 100 nM.
Consider `CCn1c(=O)c(-c2cc(NC(=O)Nc3cccc(C#N)c3)c(F)cc2F)cc2cnc(NC)cc21` [Example 18, 1-(3-cyanophenyl)-3-(5-(1-ethyl-7-(methylamino)-2-oxo-1,2-dihydro-1,6-naphthyridin-3-yl)-2,4-difluorophenyl)urea], for which the IC50 in assay [1] was 10 to 100 nM; in assay [2], 10 to 100 nM; in assay [4], less than 10 nM; in assay [3], 100 to 1000 nM.
On to `CCn1c(=O)c(-c2cc(NC(=O)Nc3csc4ccccc34)c(F)cc2F)cc2cnc(NC)cc21` [Example 19, 1-(benzo[b]thiophen-3-yl)-3-(5-(1-ethyl-7-(methylamino)-2-oxo-1,2-dihydro-1,6-naphthyridin-3-yl)-2,4-difluorophenyl)urea], for which the IC50 in assay [1] was 10 to 100 nM; in assay [4], less than 10 nM; in assay [3] it was less than 10 nM.
For the molecule `CCn1c(=O)c(-c2c(Cl)ccc(NC(=O)Nc3ccccc3)c2F)cc2cnc(NC)cc21` [Example 26, 1-(4-chloro-3-(1-ethyl-7-(methylamino)-2-oxo-1,2-dihydro-1,6-naphthyridin-3-yl)-2-fluorophenyl)-3-phenylurea], the IC50 is more than 1000 nM in assay [1], 10 to 100 nM in assay [4] and more than 1000 nM in assay [3].
Take `CCn1c(=O)c(-c2cc(NC(=O)Nc3ccccc3)ccc2Cl)cc2cnc(NC)cc21` [Example 33, 1-(4-chloro-3-(1-ethyl-7-(methylamino)-2-oxo-1,2-dihydro-1,6-naphthyridin-3-yl)phenyl)-3-phenylurea]: the IC50 in assay [1] was 100 to 1000 nM; in assay [2], 100 to 1000 nM; in assay [5], less than 10 nM; in assay [6], 10 to 100 nM; in assay [4] it was less than 10 nM; in assay [3] it was 10 to 100 nM. Moreover, the IC50 in assay [7] was 10 to 100 nM.
For the molecule `CCn1c(=O)c(-c2cc(NC(=O)Nc3ccccc3)c(F)cc2F)cc2cnc(NCCOC)cc21` [Example 36, 1-(5-(1-ethyl-7-(2-methoxyethylamino)-2-oxo-1,2-dihydro-1,6-naphthyridin-3-yl)-2,4-difluorophenyl)-3-phenylurea], the IC50 is 10 to 100 nM in assay [1]; 100 to 1000 nM in assay [2]; 10 to 100 nM in assay [5]; 10 to 100 nM in assay [6]; 100 to 1000 nM in assay [8]; less than 10 nM in assay [4]. Besides, the IC50 in assay [3] lay within 10 to 100 nM; in assay [7], 100 to 1000 nM.
For the molecule `CCn1c(=O)c(-c2cc(NC(=O)Nc3cccc(F)c3)c(F)cc2C)cc2cnc(NC3CC3)cc21` [Example 45, 1-(5-(7-(cyclopropylamino)-1-ethyl-2-oxo-1,2-dihydro-1,6-naphthyridin-3-yl)-2-fluoro-4-methylphenyl)-3-(3-fluorophenyl)urea], the IC50 is more than 1000 nM in assay [1]; 10 to 100 nM in assay [2]; 10 to 100 nM in assay [5]; 10 to 100 nM in assay [6]; less than 10 nM in assay [4]; 10 to 100 nM in assay [3].
